Experimental data as given in the OPERA property sets (Mansouri et al. 2018).

O=C1NC(=O)C2(CCCCCCCCCCC2)C(=O)N1
logP: 3.51

O=C1NC(=O)C2(CCCCCC2)C(=O)N1
logP: 1.36

CC(C)=CCC1(C(C)(C)C)C(=O)NC(=O)NC1=O
logP: 2.56

O=C1NC(=S)NC(=O)C12CCCCC2
logP: 1.78

O=C1NC(=O)C2(CCCCC2)C(=O)N1
logP: 0.91

O=C1NC(=O)C2(CC2)C(=O)N1
logP: -0.53

CCC1(C)C(=O)NC(=O)NC1=O
logP: 0.08

CC(C)=CCC1(C(C)C)C(=O)NC(=O)NC1=O
logP: 2.23

O=C1NC(=O)C2(CCC2)C(=O)N1
logP: -0.27

CC1(c2ccccc2)C(=O)NC(=O)NC1=O
logP: 0.91

O=C1NC(=O)C(c2ccccc2)(c2ccccc2)C(=O)N1
logP: 1.96

O=C1NC(=O)C2(CCCCCCC2)C(=O)N1
logP: 1.79

CC1(C)C(=O)NC(=O)NC1=O
logP: -0.44

O=C1NC(=O)C2(CCCC2)C(=O)N1
logP: 0.24

CCC1(CC=C(C)C)C(=O)NC(=O)NC1=O
logP: 1.73

O=C1NC(=O)C2(CCCCCCCCCC2)C(=O)N1
logP: 3.15

C=CCC1(C)C(=O)NC(=O)NC1=O
logP: 0.36
